Earlier results on one substance are cited in patent US7833986B2, “Anti-inflammatory peptides” (Salpep Biotechnology Inc., priority 2002, dated 2010).

The series concerns lipopolysaccharide-induced hypotension. The settings on record: Mathison et al. (1997).

On to submandibular gland peptide-T [SGP-T], for which the “doses that inhibit lipopolysaccharide-induced hypotension” value was at least 1 µg/kg.
